Test results published in patent US20230099441A1, “HETEROCYCLIC COMPOUND, APPLICATION THEREOF, AND COMPOSITION CONTAINING SAME” (GenEros Biopharma Ltd., priority 2019, published 2023).

Columns and labels:
[1] = system: mouse collagen-induced arthritis model; test: Therapeutic efficacy in a mouse collagen-induced arthritis model (clinical score); format: in vivo; settings: mean of group, total score 0-12, oral, Methotrexate 0.25 mg/kg once a week, Tofacitinib 5 mg/kg once a day, X8 1 mg/kg once a day
From the text: Example of Effect 2: Evaluation of the Therapeutic Efficacy of X8 Compound in a Mouse Collagen-Induced Arthritis Model
(§1) Sixty male DBA/1J mice (9-10 weeks old, H-2q haplotype) were acclimatized in a standard animal room for one week and then randomly divided into 5 groups. Except for the healthy control group, the rest were inoculated with collagen antigen injection, and then received oral treatment with different compounds. The brief procedure was to mix bovine type II collagen (purchased from Chondrex, 20021) with an equal volume of Freund's complete adjuvant (purchased from Sigma, F5881), the concentration was 4 mg/ml, and it was treated with a homogenizer at a speed of 20,000 revolutions/min for 5-10 minutes. A needle was inserted between the left side of the dorsal caudal artery and the lateral vein of the mouse, and 50 microliters of modeling agent was injected subcutaneously. 21 days after the first injection, another injection was injected between the right side of the dorsal tail artery and the lateral vein of the mouse. After the first injection, oral administration was started. The drug was formulated with […] PEG300, and it was prepared for immediate use. […] The total score was between 0-12 points, and the swelling of the foot after vaccination was not calculated.

[2] = Body weight of animals in the mouse collagen-induced arthritis model; format: in vivo; settings: oral, X8 1 mg/kg once a day; for body weight of animals, Mean/g: mean of group, Methotrexate 0.25 mg/kg once a week, Tofacitinib 5 mg/kg once a day
From the text: as §1

## C[C@@H]1CCN(C(=O)CC#N)C[C@@H]1N(C)c1ncnc2[nH]ccc12 [Tofacitinib, tofacitinib]
[1]; day 0
  clinical score of arthritis, Mean (the larger the value, the more severe the disease): 0.00
[1]; day 21
  clinical score of arthritis, Mean (the larger the value, the more severe the disease): 0.00
[1]; day 25
  clinical score of arthritis, Mean (the larger the value, the more severe the disease): 0.00
[1]; day 28
  clinical score of arthritis, Mean (the larger the value, the more severe the disease): 0.81
[1]; day 31
  clinical score of arthritis, Mean (the larger the value, the more severe the disease): 1.83
[1]; day 33
  clinical score of arthritis, Mean (the larger the value, the more severe the disease): 2.19
[1]; day 35
  clinical score of arthritis, Mean (the larger the value, the more severe the disease): 2.52
[1]; day 38
  clinical score of arthritis, Mean (the larger the value, the more severe the disease): 2.77
[1]; day 40
  clinical score of arthritis, Mean (the larger the value, the more severe the disease): 2.62
[1]; day 42
  clinical score of arthritis, Mean (the larger the value, the more severe the disease): 3.14
[1]; day 45
  clinical score of arthritis, Mean (the larger the value, the more severe the disease): 2.90
[2]; day 0
  body weight of animals, Mean/g: 21.94 g
[2]; day 4
  body weight of animals, Mean/g: 22.41 g
[2]; day 7
  body weight of animals, Mean/g: 22.76 g
[2]; day 11
  body weight of animals, Mean/g: 22.79 g
[2]; day 14
  body weight of animals, Mean/g: 22.55 g
[2]; day 18
  body weight of animals, Mean/g: 22.87 g
[2]; day 20
  body weight of animals, Mean/g: 23.20 g
[2]; day 25
  body weight of animals, Mean/g: 22.48 g
[2]; day 28
  body weight of animals, Mean/g: 22.46 g
[2]; day 31
  body weight of animals, Mean/g: 22.37 g
[2]; day 33
  body weight of animals, Mean/g: 22.65 g
[2]; day 35
  body weight of animals, Mean/g: 22.43 g
[2]; day 38
  body weight of animals, Mean/g: 22.30 g
[2]; day 40
  body weight of animals, Mean/g: 20.90 g
[2]; day 42
  body weight of animals, Mean/g: 22.13 g
[2]; day 45
  body weight of animals, Mean/g: 22.30 g
[2]; whole experiment, days 0-45, methotrexate 0.25 mg/kg once a week, tofacitinib 5 mg/kg once a day
  effect on body weight of animals (in words): weight loss in the late stage of the experiment
